Data set [1] deals with T1, AChE (Homo sapiens, UniProt P22303). Nature of the data set: Head group hydrolysis by AChE / choline esterases. The data set is classed as biochemical. As for the experimental part:
FIG. 41: Hydrolysis of the ACh head group of bioamphiphiles GLH-20 and GLH-32 by AChE. Hydrolysis was measured by determining the pH change after addition of AChE to the incubation medium and was converted to change in the proton concentration.

Data set [2] in a line: Preliminary toxicity studies of vesicles / bolas.
Data set [3] in a line: Vesicle stability in storage / PBS (CF encapsulation, size).
Procedure: Vesicle stability: To determine vesicle stability, samples of carboxyfluorescein (CF)-loaded vesicles (see below method for loading vesicles with CF and determination of percent encapsulation) were incubated in PBS and percent encapsulation was determined at different times.
To determine the stability of vesicles with encapsulated protein, vesicle samples were incubated in PBS and the percent encapsulation was determined at different times. Stability was also determined by changes in the vesicle size (by DLS, as was described in previous sections) at various time points after vesicle preparation.
Vesicle stability was evaluated by measuring both changes in the concentration of encapsulated carboxyfluorescein (CF) and vesicles size as a function of time when incubated in PBS at room temperature.
Vesicles were prepared from each of the above formulations by the method of film hydration followed by sonication as described above, and percent CF encapsulation was determined at different times in storage at 4° C.
The nature of data set [4]: Vesicle size and size distribution by dynamic light scattering (DLS). The data set is classed as physicochemical. On the procedure:
Dynamic light scattering (DLS): Vesicle size and homogeneity was determined by DLS using HPPS-NIBS, light scattering apparatus (ALV-Laser, Langen, Germany) with the laser powered at 3 mW HE-Ne laser line (632.8 nm), at the Ilse Katz Institute for Nanoscale Science and Technology of BGU. Standard vesicle solutions were diluted 1:10 and loaded into a cuvette for light scattering measurements. The measurements were conducted at an angle of 173°, during 30-180 seconds, from different positions of the cell in order to avoid measurements of multiple scattering.
Zeta-potential measurements: Particle size and zeta potential were measured by using zeta potential and Particle size analyzer, ZetaPlus, (Brookhaven Instruments Corporation Ltd, NY, USA), in the range of 10-1000 nm, in the Chemistry Department of BGU. Vesicle solutions were diluted 1:10 in appropriate buffers and loaded into a 4 ml cuvette for light scattering measurements. The measurements were conducted at an angle of 90°, at 10 repeated measurements, and zeta potential was estimated as an average of 5 repeated readings.

Data set [5] addresses T1, AChE. Nature of the data set: Inhibition of ATC hydrolysis by AChE (Lineweaver-Burk analysis). Conditions: three concentrations; Km affected, Vmax not. The data set is classed as biochemical. As for the experimental part:
In order to compare between the inhibitory potentials of the two bolaamphiphiles, the rate of ATC hydrolysis was measured in presence of three concentrations of the GLH compounds and assessed the results by a Lineweaver-Burk analysis.

Data set [6] in a line: CF concentration in brain after i.v. injection of CF-loaded vesicles. It is filed as in vivo, mice. Conditions: 30 min. As for the experimental part: Unless otherwise stated, animals were pretreated 15 min before the injection of the test material by pyridostigmine (o.5 mg/kg, i.m.) to inhibit peripheral ChE and thus, reduce vesicle decapsulation in the blood circulation before they enter the brain. The test material was injected i.v. into the tail vein in a volume of 100-200 µl per mouse.
The test material (either free CF or encapsulated CF) was injected into the tail vein of mice in a volume of up to 200 μl. The quantity of encapsulated CF was always determined prior to the administration and similar amounts of either encapsulated or free CF were injected. At 30 minutes after the injection, mice were anesthetized by Xylazine-Ketamine and blood was withdrawn through cardiac puncture, the mouse was perfused with 10 ml PBS and tissues were dissected out. The specimens were homogenized in PBS, deproteinated by 5% (final concentration) of tricholoro acetic acid (TCA), centrifuged and the supernatants were used for fluorescence measurements.
This experiment mesure accumulation of CF in the brain following i.v. administration. […] 30 min after the injection, the animals were sacrificed, perfused with 10 ml PBS and the brains removed and homogenized, deproteinized by 5% tricholoroacetic acid and fluorescence determined in the supernatants obtained following centrifugation. […]

The nature of data set [7]: Analgesia after i.v. injection of enkephalin, free or in vesicles. To be noted: i.v. analgesic peptide (enkephalin).
Data set [8] can be described thus: Albumin-FITC fluorescence in cerebral cortex after i.v. injection. It is filed as in vivo. Conditions: mouse cerebral cortex fluorescence. An excerpt: FIG. 5A: Fluorescence in mouse cerebral cortex after i.v. injection of albumin-FITC (non-encapsulated); FIG. 5B: Fluorescence in mouse cerebral cortex after i.v. injection of albumin-FITC encapsulated in GLH-20 vesicles.

Data set [9] relates to SH-SYSY neuroblastoma cells. Briefly: GDNF activity: activation of AKT and MAPK. The data set is classed as cell-based, human. To be noted: 20 ng/ml hGDNF; free, encapsulated or added to empty vesicles; Western blot. As for the experimental part: To determine the activity of GDNF, we measured the effect of 20 ng/ml hGDNF on the activation of the enzymes AKT and MAPK using SH-SYSY neuroblastoma cells (obtained from the ATTC). For this measurement, we plated the cells in 12 well plates coated with PEI at a density range of 3×10^5-6×10^5 cells/well 48 h prior to the bioassay. Cells were deprived of serum for 2.5 h, stimulated by the test material (plain medium as a control or free GDNF or encapsulated GDNF), washed once with ice-cold PBS and then lysed in […] sample buffer. The lysates were boiled, sonicated and centrifuged and then loaded onto 10% acrylamide gel for SDS-PAGE. After the electrophoresis, the samples were immune-blotted using antibodies against phospho-MAPK44/42 and against phospho-AKT.
The effect of the encapsulation process on GDNF activity was also examined by treating neuroblastoma cells that respond to GDNF by activation of kinases, particularly AKT and MAPK. […] AKT and MAPK are activated when they are phosphorylated and GDNF induces phosphorylation of these enzymes in SH-SY5Y neuroblastoma cells. If GDNF activity is impaired, it will not phosphorylate AKT and MAPK to pAKT and pMAPK, respectively. pAKT and pMAPK can be detected by specific antibodies for the phosphorylated forms of the enzymes on a Western blot.

Data set [10] can be described thus: GDNF encapsulation in bolaamphiphilic vesicles. The data set is classed as physicochemical. Conditions: 12.5 μg/ml GDNF (AlexaFluor-488); 10 mg/ml GLH-19 + GLH-20 vesicles. On the procedure: The encapsulation efficiencies of trypsinogen and GDNF were assessed by first running the sample through a Sephadex G-50 column to remove non-encapsulated protein from the encapsulated protein. The fractions obtained from the column (generally 0.5 ml per fraction) were treated by Triton X-100 reduced form to avoid interference with the absorbance reading of the encapsulated material at 280 nm. The concentration of trypsinogen or GDNF proteins was measured by either UV absorbance at 280 nm, or when the quantities of the proteins were low, the proteins were labeled with AlexaFluor®-488 (see procedure for labeling the proteins below) and their quantities determined by fluorescence spectroscopy. Percent encapsulation was determined by dividing the area under the curve of the vesicle fractions by the total area under the curve, which was the sum of the area under the curve of the vesicle preparation and the area under the curve of the free protein. With the use of a calibration curve the concentrations in each were determined. […]
Since GDNF would be used at sub milligram range and its spectroscopic absorption could not be accurately measured at these concentrations, therefore, fluorescent tagging was investigated as a means of increasing the sensitivity of the determination of low quantities of the encapsulated protein. […]

Data set [11] is described as follows: Integrity of GDNF after encapsulation (SDS-PAGE). To be noted: monomeric and dimeric forms. On the procedure: Sodium dodecyl sulfate polyacrylamide gel electrophoresis (SDS-PAGE) was used to examine whether the encapsulation process affects the integrity of the encapsulated GDNF. The test samples were applied on a 5%−/15% SDS-polyacrylamide gel and electrophoresis was performed using a running buffer of 14.4 g glycine and 3 g Tris base per Liter with […]. The gels were then stained by Coomasie blue using the Bio-Safe Coomassie staining protocol and then destained for 30 min in water.

Data set [12] is described as follows: Trypsinogen encapsulation in bolaamphiphilic vesicles (Sephadex column, UV or fluorescence). The data set is classed as physicochemical. Conditions: 10 mg/ml GLH-19 + GLH-20 vesicles.
[13] abbreviates: formulated with CHOL and CHEMS at a ratio of 2:1:1.
[14] abbreviates: vesicles from the bolaamphiphile without additives.

Entries after “also recorded” stand apart in the source; their conditions may differ.

T1 sequence (P22303 32-614): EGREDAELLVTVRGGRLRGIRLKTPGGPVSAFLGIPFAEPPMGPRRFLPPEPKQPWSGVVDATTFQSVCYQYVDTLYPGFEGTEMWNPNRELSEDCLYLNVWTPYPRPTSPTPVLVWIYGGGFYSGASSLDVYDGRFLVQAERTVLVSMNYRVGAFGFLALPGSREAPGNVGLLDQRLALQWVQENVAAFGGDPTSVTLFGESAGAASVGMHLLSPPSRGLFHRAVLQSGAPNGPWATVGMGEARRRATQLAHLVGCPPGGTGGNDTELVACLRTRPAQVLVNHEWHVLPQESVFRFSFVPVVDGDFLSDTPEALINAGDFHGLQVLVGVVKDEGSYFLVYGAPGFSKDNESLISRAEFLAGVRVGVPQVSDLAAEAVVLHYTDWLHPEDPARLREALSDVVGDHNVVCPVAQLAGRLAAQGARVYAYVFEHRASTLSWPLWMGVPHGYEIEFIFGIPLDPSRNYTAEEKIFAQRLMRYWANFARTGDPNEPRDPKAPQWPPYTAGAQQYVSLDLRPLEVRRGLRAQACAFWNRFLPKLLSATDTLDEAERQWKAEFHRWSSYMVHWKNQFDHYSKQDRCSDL

As to `CCCCCC(OC(=O)CCCC(=O)OCC[N+](C)(C)C)C(O)C/C=C\CCCCCCCC(=O)NCCCCCCCCCCNC(=O)CCCCCCC/C=C\CC(O)C(CCCCC)OC(=O)CCCC(=O)OCC[N+](C)(C)C.[Cl-].[Cl-]` (stereo not drawn) [GLH-19], on AChE [1], the “hydrolysis of ACh head group by AChE / ChE” value (“hydrolysis … by AChE / ChE” for short) is “not hydrolyzed by AChE”. The “toxicity relative to GLH-20” value in [2] is on record as “less toxic”.
Turning to `CCCCCC(OC(=O)C[N+](C)(C)CCOC(C)=O)C(O)C/C=C\CCCCCCCC(=O)NCCCCCCCCCCOC(=O)CCCCCCC/C=C\CC(O)C(CCCCC)OC(=O)C[N+](C)(C)CCOC(C)=O.[Cl-].[Cl-]` (stereo not drawn) [GLH-20 (empty vesicles)], the “vesicle stability in storage” value in data set [3] is given as “stable in storage”.
Take `CCCCCC(OC(=O)C[N+](C)(C)CCOC(C)=O)C(O)C/C=C\CCCCCCCC(=O)NCCCCCCCCCCOC(=O)CCCCCCC/C=C\CC(O)C(CCCCC)OC(=O)C[N+](C)(C)CCOC(C)=O.[Cl-].[Cl-]` (stereo not drawn) [GLH-20]: the “hydrolysis … by AChE / ChE” value on AChE [1] is “hydrolyzed by choline esterases; also recorded: significantly faster”. In addition, in data set [4] (setting [13]), the “Diameter (nm)” value is 120 nm and the “Weight (%) main peak” value was determined as 100%. In [4] (setting [14]), the “Diameter (nm)” value is 368 nm and the “Weight of Main peak (%)” value was 97%. Besides, on AChE [5], the “type of inhibition of ATC hydrolysis by AChE” value is “competitive inhibitors”.
Regarding `CCCCCCCCC(OC(=O)C[N+](C)(C)CCOC(C)=O)C(O)CCCCCCCC(=O)OCCCCCCCCCCOC(=O)CCCCCCCC(O)C(CCCCCCCC)OC(=O)C[N+](C)(C)CCOC(C)=O.[Cl-].[Cl-]` (stereo not drawn) [GLH-32], the “hydrolysis … by AChE / ChE” value at AChE [1] was “hydrolyzed by AChE”. For the same molecule, in data set [4] (setting [13]), the “Diameter (nm)” value is given as 134 nm and the “Weight (%) main peak” value worked out at 100%. In data set [4] (setting [14]), the “Diameter (nm)” value is reported as 345 nm and the “Weight of Main peak (%)” value is reported as 68%. The “type of inhibition of ATC hydrolysis by AChE” value at AChE [5] is “competitive inhibitors”.
For the molecule carboxyfluorescein [free CF], the “brain penetration of free CF” value in [6] is reported as “hardly entered the brain”; in data set [6] (listed as Free CF), “did not penetrate into the brain in significant amounts”.
As for “free enkephalin: non-encapsulated enkephalin administered together with empty vesicles (YGGFL; Leu-enkephalin; UniProt P01210 230-234, looked up)”, the analgesia entry in data set [7] is listed as “not”.
“un-encapsulated albumin-FITC: albumin-FITC (non-encapsulated)”: the “brain accumulation of albumin-FITC” value in data set [8] was “little, if any, brain accumulation”.

B1: GDNF: glial cell line-derived neurotrophic factor, human (protein, UniProt P39905 78-211, looked up)
Glial cell line-derived …: SPDKQMAVLPRRERNRQAAAANPENSRGKGRRGQRGKNRGCVLTAIHLNVTDLGLGYETKEELIFRYCSGSCDAAETTYDKILKNLSRNRRLVSDKVGQACCRPIAFDDDLSFLDDNLVYHILRKHSAKRCGCI
As to B1, the “phosphorylation of AKT and MAPK” value in data set [9] was “same degree of phosphorylation”. Moreover, the percent encapsulation in [10] came out at 66%. In addition, the “GDNF integrity after encapsulation with sonication” value in [11] is “no fragmentation”.

B2: trypsinogen: model protein for GDNF, from bovine pancreas (protein, UniProt P00760 18-246, looked up)
pro-form: VDDDDKIVGGYTCGANTVPYQVSLNSGYHFCGGSLINSQWVVSAAHCYKSGIQVRLGEDNINVVEGNEQFISASKSIVHPSYNSNTLNNDIMLIKLKSAASLNSRVASISLPTSCASAGTQCLISGWGNTKSSGTSYPDVLKCLKAPILSDSSCKSAYPGQITSNMFCAGYLEGGKDSCQGDSGGPVVCSGKLQGIVSWGSGCAQKNKPGVYTKVCNYVSWIKQTIASN
modifications: pro-form
notes: model protein for GDNF, from bovine pancreas
In the case of B2, the percent encapsulation in data set [12] (50 μg/ml trypsinogen (AlexaFluor-488)) is reported as 54%; in data set [12] (100 μg/ml trypsinogen (AlexaFluor-488)) it was 42%.

(Values after US20220072098A1 (priority 2012, published 2022).)
